Results on three molecules are retold here after patent US20060142323A1, “Dual binding site acetylcholinesterase inhibitors for the treatment of alzheimer's disease” (priority 2002, published 2006).

Data set [1] addresses T1, β-amyloid-AChE complex (Homo sapiens, UniProt P22303).
T1 construct: purchased Sigma-Aldrich
Briefly: Inhibition of β-amyloid aggregation (AChE-Aβ complex, Congo Red binding). It counts as biochemical. Particulars: compound at its AChE IC50, Aβ1-40 0.1 mM, Aβ-AChE 200:1, 48 hours. As for the experimental part: Inhibition of β-Amyloid Aggregation:
Stock solutions of Aβ1-40 at 3.5 mM were prepared in DMSO. The amount of peptide used in the assays was 0.1 mM. Human recombinant AChE (Sigma-Aldrich) was used at a molar ratio Aβ-AChE 200:1. For the aggregation studies the peptide was mixed with the appropriate amount of AChE in PBS pH 7.4 and stirred for 48 hours in -a microtiter plate at room temperature. The fibrils obtained were characterized by Congo Red (CR) binding.
For the inhibition of β-amyloid aggregation, the compounds tested were used at the IC50 defined in the previous paragraph of the biological evaluation. Propidium iodide 50 μM for comparison.

Data set [2] deals with T2, AChE from SH—SY5Y cells (Homo sapiens, UniProt P22303).
T2 construct: The assay solution consisted of AChE from neuronal cells; endogenous in cells; host or cells: SH-SY5Y human neuroblastoma cells
T2 sequence (P22303 32-614): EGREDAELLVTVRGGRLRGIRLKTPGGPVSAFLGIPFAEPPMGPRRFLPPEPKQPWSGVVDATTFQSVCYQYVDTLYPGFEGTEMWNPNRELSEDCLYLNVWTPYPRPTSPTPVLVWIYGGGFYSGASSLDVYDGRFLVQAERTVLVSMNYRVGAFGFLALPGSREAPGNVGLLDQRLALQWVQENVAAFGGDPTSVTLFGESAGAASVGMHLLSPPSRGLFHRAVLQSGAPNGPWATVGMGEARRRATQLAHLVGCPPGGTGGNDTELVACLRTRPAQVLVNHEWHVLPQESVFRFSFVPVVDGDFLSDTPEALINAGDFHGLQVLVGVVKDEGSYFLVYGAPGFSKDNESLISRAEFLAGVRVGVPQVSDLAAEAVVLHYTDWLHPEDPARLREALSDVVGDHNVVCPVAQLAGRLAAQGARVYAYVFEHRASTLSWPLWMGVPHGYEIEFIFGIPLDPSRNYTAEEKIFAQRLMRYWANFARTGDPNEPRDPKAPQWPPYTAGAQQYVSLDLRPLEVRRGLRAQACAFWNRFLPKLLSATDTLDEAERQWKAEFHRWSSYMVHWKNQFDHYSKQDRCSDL
As to the kind of experiment: Neuronal AChE activity, enzyme preparation from SH-SY5Y cells. Conditions: pH 8, 0.5 mM acetylthiocholine iodide, read-out: IC50 AChE SH-SY5Y (human neuroblastoma). It counts as biochemical. As for the experimental part:
(§1) Acetylcholinesterase (AChE) enzyme preparations were obtained from SH—SY5Y, SK—N—SH and N2A cells.
(§2) CELL CULTURE: The human neuroblastoma cell line SH—SY5Y was cultured in minimum essential medium, Han's F12 medium, supplemented with 10% fetal bovine serum and 1% penicillin/streptomycin, and grown in a 5% CO2 humidified incubator at 37° C. […] The rat neuroblastoma cell line N2A was cultured in DULBECCO'S MOD EAGLE medium, supplemented with 10% fetal bovine serum and 1% penicillin/streptomycin, and grown in a 5% CO2 humidified incubator at 37° C. The cells were plated at 250 10^3 cells for each reaction, at least, 48 hours before the AChE activity measure. Cells were washed and harvested in 0.1 M sodium phosphate buffer pH 8, at 4° C.
(§3) The assay solution consisted of AChE from neuronal cells, 0.1 M phosphate buffer pH 8, 0.3 mM 5,5′-dithiobis (2-nitrobenzoic acid) (DTNB, Ellman-s reagent), and 0.5 mM acetylthiocholine iodide as the substrate of the enzymatic reaction. […] The reaction rate was calculated with, at least, triplicate measurements, and the percent inhibition due to the presence of test compound was calculated relative to the compound-free control.

The target in data set [3] is T3, AChE from SK—N—SH cells (Homo sapiens, UniProt P22303).
T3 construct: The assay solution consisted of AChE from neuronal cells; endogenous in cells; host or cells: SK-N-SH human neuroblastoma cells
T3 sequence (P22303 32-614): as above
As to the kind of experiment: Neuronal AChE activity, enzyme preparation from SK-N-SH cells. The class given is biochemical. Here is the method:
as §1, §2, §3

The target in data set [4] is T4, AChE from human erythrocytes (Homo sapiens, UniProt P22303).
T4 construct: 0.02 unit/ml AChE (Sigma Chemical Co. from human erythrocytes); purchased Sigma Chemical Co; host or cells: human erythrocytes
T4 sequence (P22303 32-617 isoform P22303-2 limits assumed): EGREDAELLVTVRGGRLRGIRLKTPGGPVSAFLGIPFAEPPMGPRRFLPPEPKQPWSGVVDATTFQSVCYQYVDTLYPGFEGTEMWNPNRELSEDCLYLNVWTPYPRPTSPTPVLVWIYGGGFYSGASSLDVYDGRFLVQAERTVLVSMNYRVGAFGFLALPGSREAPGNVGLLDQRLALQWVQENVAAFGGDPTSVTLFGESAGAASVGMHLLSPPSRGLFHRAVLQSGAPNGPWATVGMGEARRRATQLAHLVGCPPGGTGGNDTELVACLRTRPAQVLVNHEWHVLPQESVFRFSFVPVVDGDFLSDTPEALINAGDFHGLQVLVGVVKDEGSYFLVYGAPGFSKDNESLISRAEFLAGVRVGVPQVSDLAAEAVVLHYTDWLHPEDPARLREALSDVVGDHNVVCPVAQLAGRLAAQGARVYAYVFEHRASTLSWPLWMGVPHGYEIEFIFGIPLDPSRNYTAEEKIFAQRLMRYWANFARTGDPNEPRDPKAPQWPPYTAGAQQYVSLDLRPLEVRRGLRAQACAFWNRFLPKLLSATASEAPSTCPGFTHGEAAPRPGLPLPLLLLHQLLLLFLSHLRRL
Briefly: AChE inhibition (from human erythrocytes), Ellman method. Particulars: 10 min preincubation at 30° C., 400 μM acetylthiocholine iodide, pH 8. The class given is biochemical. As for the experimental part:
AChE Inhibition (from Human Erythrocytes)
The method of Ellman et al. (Ellman, G. L.; Courtney, K. D.; Andres, B.; Featherstone, R. M. Biochem. Pharmacol. 1961, 7, 88-95) was followed. The assay solution consisted of 0.1 M phosphate buffer pH 8, 200 μM 5,5′-dithiobis(2-nitrobenzoic acid) (DTNB, Ellan's reagent), 0.02 unit/ml AChE (Sigma Chemical Co. from human erythrocytes), and 400 μM acetylthiocholine iodide as the substrate of the enzymatic reaction. The compounds tested were added to the assay solution and pre incubated with the enzyme for 10 min at 30° C. After that period, the substrate was added. The absorbance changes at 412 nm were recorded for 5 min with a Perkin-Elmer 550 SE UV/VIS spectrometer, the reaction rates were compared, and the percent inhibition due to the presence of test compounds was calculated.
Background: DTNB colorimetry detects thiols as they appear.

For data set [5], the target named is T5, AChE from N2A cells (Mus musculus, UniProt P21836).
T5 construct: The assay solution consisted of AChE from neuronal cells; endogenous in cells; host or cells: N2A neuroblastoma cells
T5 sequence (P21836 32-614): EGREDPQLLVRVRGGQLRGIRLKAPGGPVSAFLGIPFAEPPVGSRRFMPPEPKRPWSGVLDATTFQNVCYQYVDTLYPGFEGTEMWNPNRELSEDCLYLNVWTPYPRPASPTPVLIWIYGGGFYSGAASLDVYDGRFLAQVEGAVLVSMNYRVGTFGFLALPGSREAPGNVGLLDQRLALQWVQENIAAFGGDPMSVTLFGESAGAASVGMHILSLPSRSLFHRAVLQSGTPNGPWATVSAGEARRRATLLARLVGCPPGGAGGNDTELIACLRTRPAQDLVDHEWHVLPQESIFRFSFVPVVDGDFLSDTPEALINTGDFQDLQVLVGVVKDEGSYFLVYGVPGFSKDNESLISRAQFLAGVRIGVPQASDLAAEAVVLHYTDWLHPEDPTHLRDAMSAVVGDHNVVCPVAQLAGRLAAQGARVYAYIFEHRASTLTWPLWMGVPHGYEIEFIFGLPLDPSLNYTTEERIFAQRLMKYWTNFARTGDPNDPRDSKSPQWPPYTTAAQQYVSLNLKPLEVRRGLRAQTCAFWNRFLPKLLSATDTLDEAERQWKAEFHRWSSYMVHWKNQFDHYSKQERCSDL
Briefly: Neuronal AChE activity, enzyme preparation from N2A cells. Particulars: pH 8, 0.5 mM acetylthiocholine iodide, read-out: IC50 AChE N2A (rat neuroblastoma). The class given is biochemical. As for the experimental part: as §1, §2, §3

Data set [6] deals with human neuroblastoma cell line SH—SY5Y. As to the kind of experiment: Toxicity measurement (LDH) in SH-SY5Y cells. Conditions: 24 hours exposure. It counts as cell-based. As for the experimental part:
The cytotoxicity effect of the molecules was tested in the human neuroblastoma cell line SH—SY5Y. These cells were cultured in 96-well plates in minimum essential medium, Han's F12 medium, supplemented with 10% fetal bovine serum, 1% glutamine and 1% penicillin/streptomycin, and grown in. a 5% CO2 humidified incubator at 37° C.
The cells were plated at 10^4 cells for each well, at least, 48 hours before the toxicity measure. Cells were exposed for 24 hours to the compounds at different concentrations (from 10^−5 to 10^−9), quantitative assessment of cell death was made by measurement of the intracellular enzyme lactate dehydrogenase (LDH) (citotoxicity detection kit, Roche). The cuantity of LDH was evaluated in a microplate reader Anthos 2010, at 492 and 620 nm. Controls were taken as 100% viability.

Data set [7] has as its system SH—SY5Y cells exposed to β-amyloid fragment 25-35. Briefly: Effects on β-amyloid toxicity (fragment 25-35, LDH viability). The class given is cell-based, human. Particulars: 1 hour pretreatment, Aβ 25-35 at 200 μM, 24 hours. As for the experimental part: Effects on β-Amiloid Toxicity
We have tested if some of these molecules interfere with amyloid peptide toxicity. Cells SH—SY5Y were cultured in 96-well plates as toxicity experiments. Cells were pretreated for 1 hour with the compounds at different concentrations (from 10^−5 to 10^−9), immediately neuronal death is induced adding synthetic peptide β-amyloid, fragment 25-35 (A25-35) at 200 μM. 24 hours later cell viability was assessed with the LDH assay; results are reported relative to untreated wells.

The target of data set [8] is T6, BuChE from human serum (Homo sapiens, UniProt P06276).
T6 construct: The assay solution consisted of 0.01 units BuChE from human serum; from tissue; host or cells: human serum
T6 sequence (P06276 29-602): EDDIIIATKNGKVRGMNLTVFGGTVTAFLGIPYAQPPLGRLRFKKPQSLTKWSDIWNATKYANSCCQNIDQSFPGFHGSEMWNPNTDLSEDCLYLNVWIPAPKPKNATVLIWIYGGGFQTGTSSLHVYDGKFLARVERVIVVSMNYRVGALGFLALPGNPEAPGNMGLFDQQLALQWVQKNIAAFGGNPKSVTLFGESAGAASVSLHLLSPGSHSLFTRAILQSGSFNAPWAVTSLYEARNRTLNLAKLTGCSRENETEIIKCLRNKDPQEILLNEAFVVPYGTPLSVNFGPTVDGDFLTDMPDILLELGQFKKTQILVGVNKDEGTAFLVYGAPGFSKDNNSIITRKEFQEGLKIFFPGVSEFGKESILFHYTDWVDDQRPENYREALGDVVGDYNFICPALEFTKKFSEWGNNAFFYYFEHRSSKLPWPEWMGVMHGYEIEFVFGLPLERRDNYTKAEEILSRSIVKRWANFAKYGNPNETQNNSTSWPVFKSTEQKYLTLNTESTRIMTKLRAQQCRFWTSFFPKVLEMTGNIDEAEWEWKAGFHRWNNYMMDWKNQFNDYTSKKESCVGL
As to the kind of experiment: Butyrylcholinesterase (BuChE) inhibition (from human serum). It counts as biochemical. Particulars: human serum BuChE, 30° C., 10 min preincubation; read-out: IC50 BuChE. As for the experimental part: Butyrylcholinetersae (BuChE) Inhibition (from Human Serum)
BuChE inhibitory activity was evaluated at 30° C. by the colorimetric method reported by Ellman (Ellman, G. L.; Courtney, K. D.; Andres, B.; Featherstone, R. M. Biochem. Pharmacol. 1961, 7, 88-95]. The assay solution consisted of 0.01 units BuChE from human serum, 0.1 M sodium phosphate buffer pH 8, 0.3 mM 5,5′-dithiobis (2-nitrobenzoic acid) (DTNB, Ellman's reagent), and 0.5 mM butylthiocholine iodide as the substrate of the enzymatic reaction. Enzyme activity was determined by measuring the absorbance at 405 nm during 5 minutes with a microplate reader Digiscan 340T. The tested compounds were preincubated with the enzyme for 10 minutes at 30° C. The reaction rate was calculated with, at least, triplicate measurements.

In data set [9] the target is AChE peripheral site (Homo sapiens, UniProt P22303). As to the kind of experiment: Propidium competition (fluorescence). The class given is binding. Particulars: 20 μM propidium iodide, AChE incubated at least 6 hours with compound. Here is the method:
Fluorescence was measured in a Fluostar optima plate reader (BMG). Measurements were carried out in 100 μl solution volume, in 96-well plates. The buffer used was 1 mM Tris/HCl, pH 8.0. […] AChE was incubated, at least 6 hours, with the molecules at different concentrations. 20 μM propidium iodide was added 10 min before fluorescence measurement.

For data set [10], the target named is T7, AChE from bovine erythrocytes (Bos taurus, UniProt P23795).
T7 construct: 0.02 units AChE (Sigma Chemical Co. from bovine erythrocytes); purchased Sigma Chemical Co; host or cells: bovine erythrocytes
T7 sequence (P23795 31-614 isoform P23795-2 limits assumed): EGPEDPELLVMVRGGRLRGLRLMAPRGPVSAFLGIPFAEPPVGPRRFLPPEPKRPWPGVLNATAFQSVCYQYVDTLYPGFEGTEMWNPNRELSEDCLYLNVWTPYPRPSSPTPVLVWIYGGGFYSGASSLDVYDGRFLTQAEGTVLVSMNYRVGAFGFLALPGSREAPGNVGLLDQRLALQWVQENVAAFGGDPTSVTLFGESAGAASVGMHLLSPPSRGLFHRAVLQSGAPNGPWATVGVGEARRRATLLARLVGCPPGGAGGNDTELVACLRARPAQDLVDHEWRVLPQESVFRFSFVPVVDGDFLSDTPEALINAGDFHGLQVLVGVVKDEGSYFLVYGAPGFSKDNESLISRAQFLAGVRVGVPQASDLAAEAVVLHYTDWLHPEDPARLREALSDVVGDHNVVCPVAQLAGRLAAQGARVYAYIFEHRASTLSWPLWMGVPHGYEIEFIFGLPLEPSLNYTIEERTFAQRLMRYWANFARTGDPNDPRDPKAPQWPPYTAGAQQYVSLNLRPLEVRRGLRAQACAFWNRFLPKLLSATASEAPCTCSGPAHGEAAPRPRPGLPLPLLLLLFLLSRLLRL
Briefly: Acetylcholinesterase (AChE) inhibition (from bovine erythrocytes), Ellman method at 30° C., Digiscan 340T. It counts as biochemical. Particulars: bovine erythrocytes AChE, 30° C., 5 min preincubation; read-out: IC50 AchE. Here is the method: Acetylcholinesterase (AChE) Inhibition (from Bovine Erythrocytes)
AChE inhibitory activity was evaluated at 30° C. by the colorimetric method reported by Ellman [Ellman, G. L.; Courtney, K. D.; Andres, B.; Featherstone, R. M. Biochem. Pharmacol. 1961, 7, 88-95]. The assay solution consisted of 0.1 M phosphate buffer pH 8, 0.3 mM 5,5′-dithiobis (2-nitrobenzoic acid) (DTNB, Ellman's reagent), 0.02 units AChE (Sigma Chemical Co. from bovine erythrocytes), and 0.5 mM acetylthiocholine iodide as the substrate of the enzymatic reaction. The compounds tested were added to the assay solution and preincubated with the enzyme for 5 min at 30° C. After that period, the substrate was added. The absorbance changes at 405 nm were recorded for 5 min with a microplate reader Digiscan 340T, the reaction rates were compared, and the percent inhibition due to the presence of test compounds was calculated. The reaction rate was calculated with, at least, triplicate measurements, and the percent inhibition due to the presence of test compound was calculated relative to the compound-free control.

The test system of data set [11] is calcium channels in SH—SY5Y cells. As to the kind of experiment: Effects on calcium channels (K+ stimulated calcium entry, Fluo-4). Particulars: 60 mM K+, 10 min preincubation. The class given is cell-based, human. Here is the method: Effects on Calcium Channels
We have studied if these compounds are able to block calcium channels. Calcium entry in SH—SY5Y cells was stimulated with 60 mM K^+ in 96-well plates. Cells were plated at 5·10^4 for each well, at least, 48 hours before the experiment. For measurement of intracellular calcium, SH—SY5Y were washed with Krebs/HEPES buffer, pH 7.4. and cells were loaded with the calcium indicator dye Fluo-4 (Molecular Probes) for 40 min at 37° C. followed by 15 min post incubation at room temperature. Intracellular calcium was measured fluorometrically in a Fluostar optima plate reader (BMG), with excitation wavelengths set at 485 nm and emission at 520 nm. The tested compounds were preincubated with the cells for 10 minutes before the depolarization with K^+.

The subject of data set [12] is SH—SY5Y cells exposed to H2O2. Briefly: Antioxidant activity (H2O2 exposure, LDH viability). Particulars: 1 hour pretreatment, 24 hours H2O2, LDH. The class given is cell-based, human. Here is the method:
In order to evaluate if these compounds have antioxidant properties cells SH—SY5Y were exposed 24 hours to […] H2O2, previously these cells were pretreated for 1 hour with the molecules at different concentrations (from 10^−5 to 10^−9). The antioxidant activity is evaluated measuring cellular viability, using the LDH assay. Cells SH—SY5Y were cultured in 96-well plates as toxicity experiments.

Sequence of AChE peripheral site (P22303 32-614): as the sequence (P22303 32-614) above
T1 sequence (P22303 32-614, one chain of several): as the sequence (P22303 32-614) above

For `COc1cc2c(cc1OC)C(=O)C(CNCCCCCCCNc1c3c(nc4ccccc14)CCCC3)C2` (stereo not shown) [Compound 1, 5,6-Dimethoxy-2-{[7-(1,2,3,4-tetrahydro-acridin-9-ylamino)-heptylamino]-methyl}-indan-1-one], the “reduction of the β-amyloid-AChE complex aggregation” value in data set [1] is given as 18.7%. For the same molecule, the IC50 (usually the concentration that gives 50% inhibition) in data set [2] came to 4350 nM; in data set [3] it was 109 nM; in data set [4] it was 25 nM; in data set [5], 209 nM.

With `O=C1c2ccccc2C(=O)N1CCCCCCCNc1c2ccccc2nc2ccccc12` [Compound 7, 2-[7-(Acridin-9-ylamino)-heptyl]-isoindole-1,3-dione], the Toxicity in data set [6] is above 100 µM. For the same molecule, the “inhibition of Aβ(25-35) toxicity” value in [7] worked out at 1 µM. The IC50 in data set [8] was 700 nM; in data set [10] it was 1500 nM. The Propidium competition in data set [9] stood at 100 µM. Further, the Calcium channel blockade in [11] was 10 µM.

Regarding `CN(CCCNc1c2c(nc3ccccc13)CCCC2)CCCNc1c2ccccc2nc2ccccc12` [Compound 21], the Antioxidant activity in [12] amounted to 10 µM. For the same molecule, the Toxicity in [6] is above 100 µM. Moreover, the results for the IC50 in data set [8] and in data set [10] were 70 nM and 4 nM, respectively. The Propidium competition in data set [9] is 1000 µM.
